Assay results published in ChEMBL document CHEMBL1149416, “Design, synthesis, and biological evaluation of BODIPY-erythromycin probes for bacterial ribosomes” (Bioorg Med Chem Lett, 2006).

Tests used:
Escherichia coli [1] = test: Binding affinity to 70S bacterial ribosome isolated from Escherichia coli; type: functional
Escherichia coli [2] = test: Inhibition of ribosome function in a coupled transcription and translational assay using Escherichia coli S30 extracts; type: functional, organism-based

Row | IC50 (Escherichia coli [2]) [nM] | SMILES | Kd (Escherichia coli [1]) [nM]
1 | 160 | CC[C@H]1OC(=O)[C@H](C)[C@@H](O[C@H]2C[C@@](C)(OC)[C@@H](OC(=O)NCCNC(=O)CCC3=CC4=Cc5c(C)cc(C)n5[B-](F)(F)[N+]4=C3)[C@H](C)O2)[C@H](C)[C@@H](O[C@@H]2O[C@H](C)C[C@H](N(C)C)[C@H]2O)[C@](C)(OC)C[C@@H](C)C(=O)[C@H](C)[C@@H](O)[C@]1(C)O | < 0.5
2 | 550 | CC[C@H]1OC(=O)[C@H](C)[C@@H](O[C@H]2C[C@@](C)(OC)[C@@H](OC(=O)NCCNC(=O)CCC3=CC4=Cc5c(C)cc(C)n5[B-](F)(F)[N+]4=C3)[C@H](C)O2)[C@H](C)[C@@H](O[C@@H]2O[C@H](C)C[C@H](N(C)C)[C@H]2O)[C@](C)(O)C[C@@H](C)[C@H](NC(=O)OCc2ccccc2)[C@H](C)[C@@H](O)[C@]1(C)O | 1.5
3 | 1500 | CC[C@H]1OC(=O)[C@H](C)[C@@H](O[C@H]2C[C@@](C)(OC)[C@@H](O)[C@H](C)O2)[C@H](C)[C@@H](O[C@@H]2O[C@H](C)C[C@H](N(C)C)[C@H]2O)[C@](C)(O)C[C@@H](C)[C@H](NC(=O)CCC2=CC3=Cc4c(C)cc(C)n4[B-](F)(F)[N+]3=C2)[C@H](C)[C@@H](O)[C@]1(C)O | 30
4 | 80 | CC[C@H]1OC(=O)[C@H](C)[C@@H](O[C@H]2C[C@@](C)(OC)[C@@H](O)[C@H](C)O2)[C@H](C)[C@@H](O[C@@H]2O[C@H](C)C[C@H](N(C)C)[C@H]2O)[C@](C)(O)C[C@@H](C)C(=O)[C@H](C)[C@@H](O)[C@]1(C)O [ERYTHROMYCIN] | 
